In paper PMC10002375, “Synthesis of 3-(2-Alkylthio-4-chloro-5-methylbenzenesulfonyl)-2-(1-phenyl-3-arylprop-2-enylideneamino)guanidine Derivatives with Pro-Apoptotic Activity against Cancer Cells” (International Journal of Molecular Sciences, 2023):

Key:
Type in all cases: cell-based, human
HeLa cells [1] = assay: Cell cycle distribution by flow cytometry, HeLa; conditions: 72 h
Experimental: (§1) The cell cycle distribution was measured by flow cytometry analysis after incubation of MCF-7, HeLa, and HCT-116 with compounds 24 and 31 for 72 h.

HCT-116 cells [2] = assay: Cell cycle distribution by flow cytometry, HCT-116
Experimental: as §1

MCF-7 cells [3] = assay: Cell cycle distribution by flow cytometry, MCF-7
Experimental: as §1

HeLa cells [4] = assay: Phosphatidylserine translocation (Annexin V-FITC/PI), HeLa; conditions: 72 h, 24 at 10 or 25 μM, 31 at 25 μM
Text: (§2) One of the early indicators of apoptosis is the exposure of phosphatidylserine residues on the cell’s surface. Annexin V has a high affinity to phosphatidylserine and, as a conjugate to fluorescein isothiocyante (FITC), is widely used for detection of early apoptotic cells using flow cytometry. Detection of late-apoptotic or necrotic cells is achieved by using propidium iodide (PI) stain. Based on the obtained fluorescence, four subpopulations were found: PI-low/FITC-low (live cells), PI-high/FITC-low (necrotic cells), PI-low/FITC-high (early apoptotic cells), and PI-high/FITC-high (late apoptotic cells).
(§3) Analysis was performed using FITC-conjugated annexin-V (Annexin V-FITC Apoptosis Kit I, BD Biosciences, San Jose, CA, USA) according to the manufacturer’s instructions (BD Biosciences) as described previously. HeLa, MCF-7, and HCT-116, after seeding to 24-well plates (5 × 10^4/per well) and 24 h incubation, were treated for 72 h with 24 or 31 (10/25 µM or 25 µM concentration respectively). Following treatment, cells were washed in PBS, centrifuged, and then resuspended in a binding buffer. Afterward, the cells were incubated for 15 min at 37 °C with FITC-conjugated annexin-V and propidium iodide. The samples were then analyzed using a LSR II flow cytometer (BD Biosciences) using 530 ± 25 nm (Annexin V-FITC) and 575 ± 26 nm (PI).
(§4) The subpopulations were identified according to their fluorescence: PI-low/FITC-low (live cells), PI-high/FITC-low (necrotic cells), PI-low/FITC-high (early apoptotic cells), and PI-high/FITC-high (late apoptotic cells).

MCF-7 (breast cancer) = assay: MTT cell viability assay, MCF-7; conditions: Homo sapiens, MCF7; MTT, 72 h
Text: The cytotoxic activity of the compounds 8–33 has been evaluated in MTT assays against three human cancer cell lines MCF-7 (breast cancer), HeLa (cervical cancer), and HCT-116 (colon cancer) and it was expressed as IC50 values in μM (Table 1).
(§5) All chemicals, if not stated otherwise, were obtained from Sigma-Aldrich (St. Louis, MO, USA). The MCF-7 cell line was purchased from Cell Lines Services (Eppelheim, Germany), the HeLa and HCT-116 cell lines were obtained from the Department of Microbiology, Tumor and Cell Biology, Karolinska Institute (Stockholm, Sweden). Cells were cultured in Dulbecco’s modified Eagle’s medium (DMEM) supplemented with 10% fetal bovine serum, 2 mM glutamine, 100 units/mL penicillin, and 100 μg/mL streptomycin. Cultures were maintained in a humidified atmosphere with 5% CO2 at 37 °C in an incubator (HeraCell, Heraeus, Langenselbold, Germany).
(§6) Cell viability was determined using the MTT (3-(4,5-dimethylthiazol-2-yl)-2,5-diphenyl-tetrazoliumbromide) assay. Stock solutions of the studied compounds were prepared in 100% DMSO. […] Cells were seeded in 96-well plates at a density of 5 × 10^3 cells/well and treated for 72 h with the examined compounds in the concentration range 1–100 μM (1, 10, 25, 50, and 100 μM). Following treatment, MTT (0.5 mg/mL) was added to the medium and cells were further incubated for 2 h at 37 °C. Cells were lysed with DMSO and the absorbance of the formazan solution was measured at 550 nm with a plate reader (1420 multilabel counter, Victor, Jügesheim, Germany). […] The experiment was performed in triplicate. Values are expressed as the mean ± SD of at least three independent experiments.

MCF-7 cells [5] = assay: Phosphatidylserine translocation (Annexin V-FITC/PI), MCF-7; conditions: MCF-7, 72 h; 24 at 10 or 25 μM, 31 at 25 μM
Text: as §2, §3, §4

HCT-116 cells [6] = assay: Mitochondrial membrane potential (JC-1, flow cytometry), HCT-116; conditions: HCT-116, 72 h, 24 at 10 or 25 μM, 31 at 25 μM
Text: (§7) A decrease in mitochondrial potential is one of the earliest hallmarks of apoptosis. A common method for indication of cells with high and low Δψm is flow cytometry combined with specific fluorescent probes, such as JC-1 (5,5′,6,6′-tetrachloro-1,1′,3,3′-tetraethylbenzimidazolylcarbocyanine iodide). JC-1 accumulates in mitochondria and forms complexes (J aggregates) with red fluorescence in healthy cells with a normal ΔΨm, whereas in apoptotic cells with a low ΔΨm exists as a monomer with green fluorescence.
(§8) Analyzed cells were seeded into wells of a 24-well plate at a density of 5 × 10^4 cells in 1000 µL, incubated overnight, and then the medium was exchanged for dilutions of reagents 24 and 31. Before the end of 72 h of incubation, MitoProbe JC-1 (25 µM) was added into each plate well. Carbonyl cyanide m-chlorophenylhydrazone CCCP (200 nM) as the mitochondrial oxidative phosphorylation uncoupler was added into the positive control 15 min before JC-1 was added. After 30 min of JC-1 staining, cells were washed with PBS and then trypsinized (Corning® 25-053CI). Cells suspended in PBS were analyzed by flow cytometry at λ excitation (ex) = 488 nm and λ emission (em) = 525/570 nm (LSR II BD Biosciences, San Jose, CA, USA).

MCF-7 cells [7] = assay: Mitochondrial membrane potential (JC-1, flow cytometry), MCF-7; conditions: MCF-7, 72 h, 24 at 10 or 25 μM, 31 at 25 μM
Text: as §7, §8

HCT-116 cells [8] = assay: Phosphatidylserine translocation (Annexin V-FITC/PI), HCT-116; conditions: HCT-116, 72 h; 24 at 10 or 25 μM, 31 at 25 μM
Text: as §2, §3, §4

HeLa cells [9] = assay: Mitochondrial membrane potential (JC-1, flow cytometry), HeLa; conditions: 72 h, 24 at 10 or 25 μM, 31 at 25 μM
Text: as §7, §8

HCT-116 (colon cancer) = assay: MTT cell viability assay, HCT-116; conditions: Homo sapiens, HCT-116; MTT, 72 h
Experimental: as §5, §6

HeLa (cervical cancer) = assay: MTT cell viability assay, HeLa; conditions: Homo sapiens, HeLa; MTT, 72 h
Experimental: as §5, §6

COc1ccc(C=CC(=NN=C(N)NS(=O)(=O)c2cc(C)c(Cl)cc2SCc2ccc(Cl)cc2)c2ccccc2)cc1 [Compound 31]
cells in sub-G1 phase (HeLa cells [1]; 25 μM, control 5.08%): 5.45%
effect on cell cycle distribution (HeLa cells [1]; 24 at 10 and 25 μM, 31 at 25 μM): does not substantially affect the cell cycle progression
cells in sub-G1 phase (HCT-116 cells [2]; HCT-116, 25 μM, 72 h, control 1.15%): 1.84%
effect on cell cycle distribution (HCT-116 cells [2]; HCT-116, 72 h, 24 at 10 and 25 μM, 31 at 25 μM): does not substantially affect the cell cycle progression
cells in sub-G1 phase (MCF-7 cells [3]; MCF-7, 25 μM, 72 h): 2.78%
effect on cell cycle distribution (MCF-7 cells [3]; MCF-7, 72 h, 24 at 10 and 25 μM, 31 at 25 μM): does not substantially affect the cell cycle progression
population of apoptotic cells (Annexin V-FITC/PI) (HeLa cells [4]): did not cause statistically significant differences compared to the control
IC50 (MCF-7 (breast cancer)): 230 ± 13 µM
population of apoptotic cells (Annexin V-FITC/PI) (MCF-7 cells [5]): did not cause statistically significant differences compared to the control
change of mitochondrial membrane potential (ΔΨm) (HCT-116 cells [6]): did not result in a loss of ΔΨm
change of mitochondrial membrane potential (ΔΨm) (MCF-7 cells [7]): did not result in a loss of ΔΨm
population of apoptotic cells (Annexin V-FITC/PI) (HCT-116 cells [8]): did not cause statistically significant differences compared to the control
change of mitochondrial membrane potential (ΔΨm) (HeLa cells [9]): did not result in a loss of ΔΨm
IC50 (HCT-116 (colon cancer)): 365 ± 11 µM
IC50 (HeLa (cervical cancer)): 110 ± 5 µM
